Data as given in PMC12042115 (mLife, 2025).
Where two headings read alike, the source gives them in different places.

Tested on: wild‐type BCG cells
Type: cell-based, M. bovis BCG
Details: for Mean Ratio: GDI5755_2d vs DMSO_2d; for Mean Ratio / Mean Ratio (GDI5755_2d vs DMSO_2d): up-regulated; for Mean_Ratio (GDI5755_3d vs DMSO_3d): down-regulated, 3 d; for Mean Ratio (GDI5755_2d vs DMSO_2d): 2d

O=C(Oc1ccc(Cl)cc1)c1ccc(N2CCOCC2)c([N+](=O)[O-])c1 [GDI‐5755]
Mean Ratio (protein A0A0H3M8Y9 Cyclase): 1.26
Mean Ratio (protein A0A0H3M9B9 Acetoacetate decarboxylase): 1.28
Mean Ratio (protein A0A0H3M9C3 DUF3039 domain-containing protein): 1.28
Mean Ratio (protein A0A0H3M9D8 Possible conserved membrane alanine rich protein): 1.31
Mean Ratio (protein A0A0H3M9I1 Probable conserved secreted protein): 1.30
Mean Ratio (protein A0A0H3M9I4 Probable membrane glycine and proline rich protein): 1.25
Mean Ratio (protein A0A0H3M9K0 Probable penicillin-binding protein pbpA): 1.25
Mean_Ratio (GDI5755_3d vs DMSO_3d) (protein A0A0H3M9N6, BCG_0093 (Rv0062), Glucanase): 0.7
Mean_Ratio (GDI5755_3d vs DMSO_3d) (protein A0A0H3M9Q0, BCG_2848c (Rv2828A), COGs COG0840): 0.7
Mean Ratio (protein A0A0H3M9S4 Carrier domain-containing protein): 1.26
Mean Ratio (GDI5755_2d vs DMSO_2d) (protein A0A0H3M9U5 Phosphatidate cytidylyltransferase): 1.38
Mean_Ratio (GDI5755_3d vs DMSO_3d) (protein A0A0H3M9Z8, BCG_2971c (Rv2950c), Probable fatty-acid-CoA ligase fadD29): 0.7
Mean Ratio (protein A0A0H3M9Z9 Probable conserved transmembrane protein rich in alanine and arginine and proline): 1.28
Mean Ratio (protein A0A0H3M143 peptidoglycan glycosyltransferase): 1.26
Mean_Ratio (GDI5755_3d vs DMSO_3d) (protein A0A0H3M233, BCG_0693c (Rv0644c), Methoxy mycolic acid synthase 2 mmaA2): 0.7
Mean_Ratio (GDI5755_3d vs DMSO_3d) (protein A0A0H3M245, BCG_0704 (Rv0655), Possible ribonucleotide-transport ATP-binding protein ABC transporter mkl): 0.7
Mean Ratio (GDI5755_2d vs DMSO_2d) (protein A0A0H3M252 Probable glutamine-binding lipoprotein glnH): 1.33
Mean Ratio (GDI5755_2d vs DMSO_2d) (protein A0A0H3M331 Uncharacterized protein): 1.34
Mean_Ratio (GDI5755_3d vs DMSO_3d) (protein A0A0H3M363, BCG_0875c (Rv0822c), Cell envelope-associated transcriptional attenuator LytR-CpsA-Psr, subfamily A1): 0.752
Mean_Ratio (GDI5755_3d vs DMSO_3d) (protein A0A0H3M469, BCG_1204c (MRA_1152), Probable enoyl-CoA hydratase echA10): 0.742
Mean_Ratio (GDI5755_3d vs DMSO_3d) (protein A0A0H3M476, BCG_0711c (Rv0662c), Ribbon-helix-helix protein CopG domain-containing protein): 0.7
Mean Ratio (protein A0A0H3M482 Conserved transmembrane protein): 1.29
Mean_Ratio (GDI5755_3d vs DMSO_3d) (protein A0A0H3M495, BCG_1238c (Rv1175c), Probable NADPH dependent 2,4-dienoyl-CoA reductase fadH): 0.758
Mean Ratio (protein A0A0H3M519 Probable conserved lipoprotein): 1.28
Mean Ratio (protein A0A0H3M628 Probable lipoprotein lppP): 1.31
Mean Ratio (GDI5755_2d vs DMSO_2d) (protein A0A0H3M639 Probable metal cation transporter P-type atpase G ctpG): 1.33
Mean Ratio (GDI5755_2d vs DMSO_2d) (protein A0A0H3M660 Conserved membrane protein): 1.39
Mean Ratio (protein A0A0H3M672 Sirohydrochlorin cobaltochelatase): 1.28
Mean Ratio (protein A0A0H3M707 Probable conserved integral membrane alanine and valine and leucine rich protein): 1.26
Mean_Ratio (GDI5755_3d vs DMSO_3d) (protein A0A0H3M735, BCG_2390c (Rv2376c), Low molecular weight antigen cfp2): 0.7
Mean_Ratio (GDI5755_3d vs DMSO_3d) (protein A0A0H3M760, BCG_0066 (Rv0035), Probable fatty-acid-coa ligase fadD34): 0.7
Mean Ratio (protein A0A0H3M769 Lipid/polyisoprenoid-binding YceI-like domain-containing protein): 1.28
Mean_Ratio (GDI5755_3d vs DMSO_3d) (protein A0A0H3M827, BCG_2840c (Rv2821c), CRISPR system Cms endoribonuclease Csm3): 0.7
Mean_Ratio (GDI5755_3d vs DMSO_3d) (protein A0A0H3M844, BCG_2251 (Rv2234), Phosphotyrosine protein phosphatase ptpA): 0.7
Mean Ratio (protein A0A0H3M847 Probable conserved transmembrane alanine rich protein): 1.26
Mean_Ratio (GDI5755_3d vs DMSO_3d) (protein A0A0H3M848, BCG_3111 (Rv3086), alcohol dehydrogenase, adhD): 0.761
Mean Ratio (GDI5755_2d vs DMSO_2d) (protein A0A0H3M855 Acyl carrier protein): 1.34
Mean Ratio (protein A0A0H3M918 Protein-export membrane protein SecF): 1.28
Mean_Ratio (GDI5755_3d vs DMSO_3d) (protein A0A0H3M922, BCG_3278c (Rv3249c), Possible transcriptional regulatory protein (Probably tetR-family)): 0.757
Mean_Ratio (GDI5755_3d vs DMSO_3d) (protein A0A0H3M964, BCG_1004c (Rv0950c), Peptidase M23 domain-containing protein): 0.7
Mean Ratio (protein A0A0H3M969 HNH nuclease domain-containing protein): 1.26
Mean_Ratio (GDI5755_3d vs DMSO_3d) (protein A0A0H3M984, BCG_3389c (Rv3323c), Probable moaD-moaE fusion protein moaX): 0.756
Mean Ratio (GDI5755_2d vs DMSO_2d) (protein A0A0H3MA04 ATP-dependent zinc metalloprotease FtsH): 1.34
Mean_Ratio (GDI5755_3d vs DMSO_3d) (protein A0A0H3MA19, BCG_0251 (Rv0214), Probable fatty-acid-CoA ligase fadD4): 0.739
Mean_Ratio (GDI5755_3d vs DMSO_3d) (protein A0A0H3MA36, BCG_3704c (Rv3646c), DNA topoisomerase 1): 0.7
Mean_Ratio (GDI5755_3d vs DMSO_3d) (protein A0A0H3MA81, BCG_1461c (Rv1400c), Probable lipase lipH): 0.751
Mean Ratio (protein A0A0H3MAA3 Possible conserved membrane protein): 1.25
Mean_Ratio (GDI5755_3d vs DMSO_3d) (protein A0A0H3MAA7, BCG_0352 (Rv0312), Conserved hypothetical proline and threonine rich protein): 0.739
Mean Ratio (GDI5755_2d vs DMSO_2d) (protein A0A0H3MAB2 Conserved membrane protein): 1.33
Mean_Ratio (GDI5755_3d vs DMSO_3d) (protein A0A0H3MAC6, BCG_0385c (Rv0346c), l-asparagine permease ansP2): 0.7
Mean Ratio (GDI5755_2d vs DMSO_2d) (protein A0A0H3MAC8 Possible conserved transmembrane protein): 1.38
Mean_Ratio (GDI5755_3d vs DMSO_3d) (protein A0A0H3MAD2, BCG_0398c (Rv0360c), DUF3151 domain-containing protein): 0.7
Mean Ratio (protein A0A0H3MAE2 Probable carbon monoxyde dehydrogenase (Medium chain)): 1.31
Mean Ratio (protein A0A0H3MAF8 Serine/threonine-protein kinase PknG): 1.26
Mean_Ratio (GDI5755_3d vs DMSO_3d) (protein A0A0H3MAI2, BCG_0498 (Rv0458), Probable aldehyde dehydrogenase): 0.7
Mean_Ratio (GDI5755_3d vs DMSO_3d) (protein A0A0H3MAI6, BCG_3192 (Rv3168), Aminoglycoside phosphotransferase domain-containing protein): 0.7
Mean_Ratio (GDI5755_3d vs DMSO_3d) (protein A0A0H3MAK6, BCG_0543 (Rv0500A), Helix-turn-helix domain-containing protein): 0.757
Mean_Ratio (GDI5755_3d vs DMSO_3d) (protein A0A0H3MAL3, BCG_3212c (Rv3190c), Restriction endonuclease): 0.7
Mean Ratio (protein A0A0H3MAP0 Conserved hypothetical alanine valine rich protein): 1.28
Mean Ratio (protein A0A0H3MAW6 Uncharacterized protein): 1.27
Mean Ratio (protein A0A0H3MAY5 (BCG_0774) Possible protease IV sppA (Endopeptidase IV)): 1.28
Mean_Ratio (GDI5755_3d vs DMSO_3d) (protein A0A0H3MB28, BCG_3433c (Rv3361c), Pentapeptide repeat protein MfpA): 0.741
Mean_Ratio (GDI5755_3d vs DMSO_3d) (protein A0A0H3MB50, BCG_3459 (Rv3390), Probable conserved lipoprotein lpqD): 0.7
Mean_Ratio (GDI5755_3d vs DMSO_3d) (protein A0A0H3MB93, BCG_3517 (Rv3451), Cutinase): 0.7
Mean_Ratio (GDI5755_3d vs DMSO_3d) (protein A0A0H3MB98, BCG_1906c (Rv1870c), Endonuclease): 0.7
Mean_Ratio (GDI5755_3d vs DMSO_3d) (protein A0A0H3MBC9, BCG_3565c (Rv3501c), Conserved hypothetical integral membrane protein yrbE4A): 0.7
